Experimental data: PMC4431585, “Identification and Characterization of a Small-Molecule Inhibitor of Death-Associated Protein Kinase 1” (Chembiochem, 2014)
Entries after “also recorded” stand apart in the source; their conditions may differ.

Tests used:
DAPK1 [1] = target: T1, DAPK1 (Homo sapiens, UniProt P53355); experiment: In vitro phosphorylation assay with DAPK1 (analytical HPLC); assay type: biochemical; details: for phosphorylation by DAPK1 (peptide as substrate): peptide 50 μM, ATP 100 μM, n=3
T1 construct: First the catalytic domain of DAPK1 (residues 1–285) was cloned,[14] expressed in Escherichia coli, and purified; made in house; host or cells: Escherichia coli
T1 sequence (P53355 1-285): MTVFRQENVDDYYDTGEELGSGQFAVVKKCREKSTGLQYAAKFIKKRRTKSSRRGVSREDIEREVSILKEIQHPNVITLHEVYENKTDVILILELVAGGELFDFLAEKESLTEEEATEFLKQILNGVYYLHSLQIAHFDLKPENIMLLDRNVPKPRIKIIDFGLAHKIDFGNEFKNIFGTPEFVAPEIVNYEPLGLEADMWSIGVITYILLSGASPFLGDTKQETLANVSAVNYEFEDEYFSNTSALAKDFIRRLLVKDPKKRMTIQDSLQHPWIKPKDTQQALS
Text: CaMKII and DAPK1 share a number of notable structural and functional properties. In particular both kinases harbor a calmodulin-binding sequence and an autoregulatory domain (ARD) next to the catalytic domain and are therefore regulated by calmodulin (or proteins with calmodulin-like domains).[10] There are also notable differences between the two kinases, for example DAPK1 is active only in its non-phosphorylated form,[11] whereas activation of CaMKII is more complex.[12] […] Thus it is proposed that phosphorylation of Ser1303 and co-localization are responsible for the regulation of calcium influx by NMDA receptors (Figure 1). To investigate the mechanistic details of DAPK1/NMDA receptor interactions further, including differences between GluN2A and GluN2B, we used in vitro phosphorylation assays. First the catalytic domain of DAPK1 (residues 1–285) was cloned,[14] expressed in Escherichia coli, and purified; the reference substrate Peptide38[2d] ([…]) and the 13-mer peptide N2B13 (1, GluN2B1292–1304, […]; Figure 2 A) were prepared. […] Thus, clearly Ser1303 in 1 is not phosphorylated by DAPK1 in vitro.
(§1) Figure 2 Comparison of peptide substrates containing Ser1303 (GluN2B) or Ser1291 (GluN2A). A) Alignment of peptides used in in vitro phosphorylation studies. B) Phosphorylation by DAPK1. C) Phosphorylation by CaMKII. Control substrates are shown with dashed lines. Degrees of phosphorylation were assessed by analytical HPLC (n=3, mean±SD). Concentration: peptide 50 μM, ATP 100 μM, kinase concentration was adjusted to fit the timescale. For further details see the Supporting Information.
(§2) This prompted us to examine related peptides derived from GluN2B and GluN2A (Figure 2 A) and we compared in vitro phosphorylation of these peptides by using both recombinant DAPK1 and CaMKII. […] Next we studied the corresponding 13- and 23-mer GluN2A peptides, N2A13 (4, GluN2A1280–1292, […]) and N2A23 (5, GluN2A1280–1302, […]); for both, Ser1291 corresponds to Ser1303 in GluN2B.

CAMKII [2] = experiment: In vitro phosphorylation assay with CaMKII (analytical HPLC); assay type: biochemical; details: peptide 50 μM, ATP 100 μM, n=3
Method: as §1, §2

PIM1 = PIM1 (Homo sapiens, UniProt P11309); experiment: Kinase selectivity screening, PIM1; assay type: biochemical
Chain of PIM1 (P11309 whole entry, species assumed): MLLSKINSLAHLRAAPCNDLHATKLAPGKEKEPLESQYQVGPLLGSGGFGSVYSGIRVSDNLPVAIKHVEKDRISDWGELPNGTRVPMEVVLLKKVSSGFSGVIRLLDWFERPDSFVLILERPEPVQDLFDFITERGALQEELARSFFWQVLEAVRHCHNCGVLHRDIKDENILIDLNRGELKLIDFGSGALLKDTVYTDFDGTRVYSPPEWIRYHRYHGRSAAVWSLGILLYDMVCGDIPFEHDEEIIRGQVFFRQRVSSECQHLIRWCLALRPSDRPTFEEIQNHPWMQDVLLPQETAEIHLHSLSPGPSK
Method: (§3) Compound 6 was tested in primary screening against a number of other kinases (SRC, BLK, AKT3, JAK2, PAK4, PAK7, PIM1, PIM2, CAMKI, and CAMKII); 60 % inhibition at 10 μM compound was used as the cut-off limit. […] Thus 6 was clearly an interesting compound.

CAMKII [3] = experiment: Kinase selectivity primary screening, CAMKII; assay type: biochemical; details: 60 % inhibition at 10 μM compound as cut-off limit
Method: as §3

SRC = SRC (Homo sapiens, UniProt P12931); experiment: Kinase selectivity screening, SRC; assay type: biochemical
Chain of SRC (P12931 whole entry, species assumed): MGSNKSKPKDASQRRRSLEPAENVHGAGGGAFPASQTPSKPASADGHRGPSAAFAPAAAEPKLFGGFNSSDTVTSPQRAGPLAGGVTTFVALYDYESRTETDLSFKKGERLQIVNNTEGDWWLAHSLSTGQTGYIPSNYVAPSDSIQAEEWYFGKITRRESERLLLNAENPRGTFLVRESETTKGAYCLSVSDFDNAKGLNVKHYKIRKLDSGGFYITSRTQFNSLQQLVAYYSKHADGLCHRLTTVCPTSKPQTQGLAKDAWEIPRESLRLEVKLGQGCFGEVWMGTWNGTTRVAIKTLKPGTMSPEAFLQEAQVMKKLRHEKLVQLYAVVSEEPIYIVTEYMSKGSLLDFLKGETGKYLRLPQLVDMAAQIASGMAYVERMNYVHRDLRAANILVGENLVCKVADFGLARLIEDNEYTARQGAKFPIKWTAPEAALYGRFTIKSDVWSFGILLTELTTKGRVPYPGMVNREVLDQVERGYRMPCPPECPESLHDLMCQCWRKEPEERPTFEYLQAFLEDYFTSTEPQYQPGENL
Method: as §3

PAK7 = PAK7 (Homo sapiens, UniProt Q9P286); experiment: Kinase selectivity screening, PAK7; assay type: biochemical
Chain of PAK7 (Q9P286 whole entry, species assumed): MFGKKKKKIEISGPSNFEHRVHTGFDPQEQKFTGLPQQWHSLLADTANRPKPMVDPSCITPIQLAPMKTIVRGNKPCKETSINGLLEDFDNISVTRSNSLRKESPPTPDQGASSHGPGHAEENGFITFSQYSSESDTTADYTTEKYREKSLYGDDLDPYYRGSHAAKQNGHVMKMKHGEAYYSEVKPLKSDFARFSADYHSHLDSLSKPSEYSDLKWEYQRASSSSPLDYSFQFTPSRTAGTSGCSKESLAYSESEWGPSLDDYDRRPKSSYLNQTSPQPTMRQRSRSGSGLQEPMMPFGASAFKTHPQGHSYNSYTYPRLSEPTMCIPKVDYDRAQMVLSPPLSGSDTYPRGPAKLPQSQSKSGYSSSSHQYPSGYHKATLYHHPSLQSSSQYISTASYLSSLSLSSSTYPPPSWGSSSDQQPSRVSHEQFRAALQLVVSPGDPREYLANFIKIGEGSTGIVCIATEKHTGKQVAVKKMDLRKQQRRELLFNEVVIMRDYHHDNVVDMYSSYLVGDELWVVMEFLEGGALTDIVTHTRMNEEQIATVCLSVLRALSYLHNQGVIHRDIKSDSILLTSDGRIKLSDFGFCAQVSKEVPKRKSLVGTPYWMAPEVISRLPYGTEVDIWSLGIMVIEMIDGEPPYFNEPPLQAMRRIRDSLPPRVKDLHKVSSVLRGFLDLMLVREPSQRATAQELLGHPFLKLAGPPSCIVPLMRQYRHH
Method: as §3

JAK2 = JAK2 (Homo sapiens, UniProt O60674); experiment: Kinase selectivity screening, JAK2; assay type: biochemical
Chain of JAK2 (O60674 whole entry, species assumed): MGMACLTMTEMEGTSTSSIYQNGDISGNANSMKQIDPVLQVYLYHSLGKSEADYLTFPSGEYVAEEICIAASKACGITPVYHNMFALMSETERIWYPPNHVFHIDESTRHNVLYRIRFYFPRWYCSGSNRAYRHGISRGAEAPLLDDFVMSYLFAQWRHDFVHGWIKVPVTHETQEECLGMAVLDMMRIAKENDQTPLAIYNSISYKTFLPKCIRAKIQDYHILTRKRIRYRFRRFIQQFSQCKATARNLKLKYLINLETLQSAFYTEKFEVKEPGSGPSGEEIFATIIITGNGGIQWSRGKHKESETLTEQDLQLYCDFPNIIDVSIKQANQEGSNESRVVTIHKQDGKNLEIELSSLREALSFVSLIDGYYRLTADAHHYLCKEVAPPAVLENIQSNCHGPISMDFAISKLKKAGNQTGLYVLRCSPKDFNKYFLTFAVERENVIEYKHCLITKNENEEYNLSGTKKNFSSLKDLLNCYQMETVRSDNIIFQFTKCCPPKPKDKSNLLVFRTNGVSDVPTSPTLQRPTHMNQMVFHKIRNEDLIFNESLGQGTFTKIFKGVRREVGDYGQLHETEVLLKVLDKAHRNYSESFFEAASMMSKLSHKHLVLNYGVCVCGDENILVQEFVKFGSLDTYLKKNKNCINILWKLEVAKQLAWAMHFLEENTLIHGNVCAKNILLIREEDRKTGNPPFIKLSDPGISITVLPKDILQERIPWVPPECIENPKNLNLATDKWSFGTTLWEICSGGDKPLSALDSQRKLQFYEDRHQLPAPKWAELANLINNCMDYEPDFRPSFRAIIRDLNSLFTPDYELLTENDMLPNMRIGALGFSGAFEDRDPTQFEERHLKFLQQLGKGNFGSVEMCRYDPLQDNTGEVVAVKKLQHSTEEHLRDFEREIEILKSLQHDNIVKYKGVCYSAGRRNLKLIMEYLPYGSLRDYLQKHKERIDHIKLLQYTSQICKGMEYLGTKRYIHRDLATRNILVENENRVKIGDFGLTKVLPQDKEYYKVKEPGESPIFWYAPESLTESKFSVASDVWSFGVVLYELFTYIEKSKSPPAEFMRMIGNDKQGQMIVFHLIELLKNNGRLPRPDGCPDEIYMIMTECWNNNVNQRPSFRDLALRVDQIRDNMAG
Method: as §3

[4] = target: T2, catalytic domain of DAPK1 (residues 1–285) (Homo sapiens, UniProt P53355); experiment: Isothermal titration calorimetry (ITC); assay type: binding; details: n=4, read-out: equilibrium dissociation constant (Kd)
T2 construct: First the catalytic domain of DAPK1 (residues 1–285) was cloned,[14] expressed in Escherichia coli, and purified; made in house; host or cells: Escherichia coli
T2 sequence (P53355 1-285): as the sequence (P53355 1-285) above
Method: as §3
Figure 3 Representative ITC of the catalytic domain of DAPK1 (residues 1–285) into 6.

DAPK1 [5] = target: T1, DAPK1; experiment: Caliper microfluidics capillary electrophoresis high-throughput enzymatic assay for DAPK1; assay type: biochemical
Text: For this, we established a high-throughput enzymatic screening assay for DAPK1. […] This peptide was used in a Caliper microfluidics capillary electrophoresis assay, which separates phosphorylated peptide product from the non-phosphorylated peptides in microcapillaries. The fluorescently labeled peptide enabled quantification in real time and thus determination of reaction velocities.

Compound	phosphorylation by DAPK1 (peptide as substrate) (DAPK1 [1])	phosphorylation by CaMKII (peptide as substrate) (CAMKII [2])	further results
KKNRKKNRNKLRRQHAYDTFVDLQKEE [Peptide 3, N2B23 with Ser1303 substituted with Ala]	prevented phosphorylation	neither the longer GluN2B peptide, N2B23 (2), nor its Ala mutant, 3, was phosphorylated	–
KKRPQRRYSNVF [peptide38, reference compound]	excellent substrate	–	–
QKNKLRISRQHSY [Peptide 4, 13-mer GluN2A peptide]	none of these peptides was phosphorylated	phosphorylated at a similar rate and to the same degree as the control peptide	–
COc1cc(-c2ccc3ncc(-c4cccc(C(=O)NCCN(C)C)c4)n3n2)ccc1O [Compound 6]	–	–	inhibition in the in vitro phosphorylation assay (DAPK1 [1]; DAPK1): showed inhibition; IC50 (PIM1): 1600 nM; primary screening (CAMKII [3]): did not to pass the primary screening; IC50 (SRC): 150 nM; IC50 (PAK7): 5600 nM; IC50 (JAK2): 1800 nM; Kd [4]: 240 ± 90 nM; IC50 (DAPK1 [5]; DAPK1, Caliper assay, 5FAM-Peptide38 substrate, ATP approximately 2×Km): 247 nM
KKNRKKNRNKLRRQHSYDTFVDLQKEE [Peptide 2, 23-mer GluN2B peptide with ten additional C-terminal amino acids]	phosphorylation to a degree similar to that for the reference substrate	neither the longer GluN2B peptide, N2B23 (2), nor its Ala mutant, 3, was phosphorylated	–
QKNKLRISRQHSYDNIVDKPREL [Peptide 5, 23-mer GluN2A peptide]	none of these peptides was phosphorylated	phosphorylated at a similar rate and to the same degree as the control peptide	–
KKNRNKLRQHSY [Peptide 1, 13-mer peptide N2B13, GluN2B1292–1304]	strongly repressed	phosphorylated in a similar manner	inhibitory effect on phosphorylation of peptide 2 (DAPK1 [1]; DAPK1, in vitro, data not shown): no in vitro inhibitory effect; also recorded: did not observe any effect
Nc1ncnc2c1ncn2[C@@H]1O[C@H](COP(=O)(O)OP(=O)(O)OP(=O)(O)O)[C@@H](O)[C@H]1O [ATP]	–	–	Km (DAPK1 [5]; DAPK1, read-out: Km for ATP): 1.24 µM
